Publication PMC6268079, “Synthesis and Biological Evaluation of 2-(3-Fluoro-4-nitro phenoxy)-N-phenylacetamide Derivatives as Novel Potential Affordable Antitubercular Agents” (Molecules, 2012)
Values after ≈ are worked out from the molar mass of the structure shown. Read-outs that look alike come from different tables or passages of the source.

Assays:
[1] = tested on: A549 lung adenocarcinoma epithelial cells; experiment: MTT-based cytotoxicity assay, A549; assay type: cell-based; conditions: Homo sapiens
Experimental: (§1) Briefly, cells (2,500/well) were seeded in 96-well plates and cultured for 24 h, followed by treatment with the target compounds for another 48 h. MTT ([…], 20 μL) was added per well and incubated for another 2.5 h at 37 °C. Then the supernatant fluid was removed and 150 μL/well DMSO was added for 15–20 min. The absorbance (OD) of each well was measured at 570 nm, using a SpectraMAX M5 microplate spectrophotometer (Molecular Devices, Sunnyvale, CA, USA). The IC50 Values are means ± SEM of three independent experiments.

[2] = tested on: A375 human melanoma cells; experiment: MTT-based cytotoxicity assay, A375; assay type: cell-based
Experimental: as §1

[3] = tested on: Vero normal African green monkey kidney epithelial cells; experiment: MTT-based cytotoxicity assay, Vero; assay type: cell-based; conditions: for IC50: Chlorocebus sabaeus
Experimental: as §1

[4] = tested on: M. tuberculosis H37Rv (ATCC 27294); experiment: Antitubercular activity by microdilution method, M. tuberculosis H37Rv; assay type: cell-based; conditions: Mycobacterium tuberculosis, 264 h, growth similar to well inoculated with 10 CFU, read after 11 days by visual investigation, three replicates
[5] = tested on: HCT116 colorectal carcinoma cells; experiment: MTT-based cytotoxicity assay, HCT116; assay type: cell-based; conditions: Homo sapiens
Experimental: as §1

[6] = tested on: Hela Henrietta Lacks strain cancer cells; experiment: MTT-based cytotoxicity assay, Hela; assay type: cell-based; conditions: Homo sapiens
Experimental: as §1

[7] = tested on: SKOV-3 ovarian carcinoma cells; experiment: MTT-based cytotoxicity assay, SKOV-3; assay type: cell-based; conditions: Homo sapiens
Experimental: as §1

[8] = tested on: HepG2 hepatocellular liver carcinoma cells; experiment: MTT-based cytotoxicity assay, HepG2; assay type: cell-based; conditions: Homo sapiens
Experimental: as §1

[9] = tested on: six different tumor cell lines; experiment: MTT-based cytotoxicity assay, six cell lines stated together
Experimental: as §1

[10] = A549, MTT, 48 h treatment, means ± SEM of three independent experiments, read-out: IC50
[11] = A-375, A375, MTT, 48 h treatment, means ± SEM of three independent experiments, read-out: IC50
[12] = Vero normal cells, MTT, 48 h treatment, means ± SEM of three independent experiments, read-out: IC50
[13] = HCT-116, HCT116, MTT, 48 h treatment, means ± SEM of three independent experiments, read-out: IC50
[14] = Hela, MTT, 48 h treatment, means ± SEM of three independent experiments, read-out: IC50
[15] = SK-OV-3, SKOV-3, MTT, 48 h treatment, means ± SEM of three independent experiments, read-out: IC50
[16] = HepG2, MTT, 48 h treatment, means ± SEM of three independent experiments, read-out: IC50

SMILES: O=C(COc1ccc([N+](=O)[O-])c(F)c1)Nc1cccc(Cl)c1 [Compound 3a, N-(3-Chlorophenyl)-2-(3-fluoro-4-nitrophenoxy)acetamide]
- IC50 [1, 10]: > 40 µM
- IC50 [2, 11]: > 40 µM
- melting point: 150 to 151 °C
- IC50 [3, 12]: > 40 µM
- MIC [4]: 16 µg/mL (≈ 49.3 µM)
- IC50 [5, 13]: > 40 µM
- IC50 [6, 14]: > 40 µM
- IC50 [7, 15]: > 40 µM
- IC50 [8, 16]: > 40 µM

SMILES: O=C(COc1ccc([N+](=O)[O-])c(F)c1)Nc1ccc(Cl)c(Cl)c1 [Compound 3b, N-(3,4-Dichlorophenyl)-2-(3-fluoro-4-nitrophenoxy)acetamide]
- melting point: 175 to 176 °C
- MIC [4]: 32 µg/mL (≈ 89.1 µM)

SMILES: O=C(COc1ccc([N+](=O)[O-])c(F)c1)Nc1ccc(Br)cc1F [Compound 3c, N-(4-Bromo-2-fluorophenyl)-2-(3-fluoro-4-nitrophenoxy)acetamide]
- melting point: 160 to 162 °C
- MIC [4]: 32 µg/mL (≈ 82.7 µM)

SMILES: O=C(COc1ccc([N+](=O)[O-])c(F)c1)Nc1ccc(Cl)c(C(F)(F)F)c1 [Compound 3d, N-(4-Chloro-3-(trifluoromethyl)phenyl)-2-(3-fluoro-4-nitrophenoxy)acetamide]
- IC50 [1, 10]: > 40 µM
- IC50 [2, 11]: > 40 µM
- melting point: 163 to 164 °C
- IC50 [3, 12]: > 40 µM
- MIC [4]: 16 µg/mL (≈ 40.7 µM)
- IC50 [5, 13]: > 40 µM
- IC50 [6, 14]: 33.2 ± 2.5 µM
- IC50 [7, 15]: > 40 µM
- IC50 [8, 16]: > 40 µM

SMILES: O=C(COc1ccc([N+](=O)[O-])c(F)c1)Nc1cccc([N+](=O)[O-])c1 [Compound 3e, 2-(3-Fluoro-4-nitrophenoxy)-N-(3-nitrophenyl)acetamide]
- melting point: 199 to 201 °C
- MIC [4]: 64 µg/mL (≈ 191 µM)

SMILES: COc1ccc(NC(=O)COc2ccc([N+](=O)[O-])c(F)c2)c(OC)c1 [Compound 3f, N-(2,4-Dimethoxyphenyl)-2-(3-fluoro-4-nitrophenoxy)acetamide]
- melting point: 174 to 175 °C
- MIC [4]: 64 µg/mL (≈ 183 µM)

SMILES: O=C(COc1ccc([N+](=O)[O-])c(F)c1)Nc1cc(C(F)(F)F)cc(C(F)(F)F)c1 [Compound 3g, N-(3,5-bis(Trifluoromethyl)phenyl)-2-(3-fluoro-4-nitrophenoxy)acetamide]
- IC50 [1, 10]: 38.2 ± 1.5 µM
- IC50 [2, 11]: 22.6 ± 0.9 µM
- melting point: 168 to 169 °C
- IC50 [3, 12]: > 40 µM
- MIC [4]: 8 µg/mL (≈ 18.8 µM)
- IC50 [5, 13]: 33.8 ± 2 µM
- IC50 [6, 14]: 20 ± 1.1 µM
- IC50 [7, 15]: 12.2 ± 1.3 µM
- IC50 [8, 16]: 21.6 ± 1.1 µM

SMILES: O=C(COc1ccc([N+](=O)[O-])c(F)c1)Nc1ccc(F)c(Cl)c1 [Compound 3h, N-(3-Chloro-4-fluorophenyl)-2-(3-fluoro-4-nitrophenoxy)acetamide]
- IC50 [1, 10]: > 40 µM
- IC50 [2, 11]: > 40 µM
- melting point: 166 to 167 °C
- IC50 [3, 12]: > 40 µM
- MIC [4]: 16 µg/mL (≈ 46.7 µM)
- IC50 [5, 13]: > 40 µM
- IC50 [6, 14]: > 40 µM
- IC50 [7, 15]: > 40 µM
- IC50 [8, 16]: > 40 µM

SMILES: O=C(COc1ccc([N+](=O)[O-])c(F)c1)Nc1ccc(Br)cc1 [Compound 3i, N-(4-Bromophenyl)-2-(3-fluoro-4-nitrophenoxy)acetamide]
- melting point: 166 to 167 °C
- MIC [4]: 32 µg/mL (≈ 86.7 µM)

SMILES: N#Cc1ccccc1NC(=O)COc1ccc([N+](=O)[O-])c(F)c1 [Compound 3j, N-(2-Cyanophenyl)-2-(3-fluoro-4-nitrophenoxy)acetamide]
- melting point: 172 to 174 °C
- MIC [4]: 64 µg/mL (≈ 203 µM)

SMILES: O=C(COc1ccc([N+](=O)[O-])c(F)c1)Nc1ccccc1C(F)(F)F [Compound 3k, 2-(3-Fluoro-4-nitrophenoxy)-N-(2-(trifluoromethyl)phenyl)acetamide]
- melting point: 146 to 147 °C
- MIC [4]: 64 µg/mL (≈ 179 µM)

SMILES: O=C(COc1ccc([N+](=O)[O-])c(F)c1)Nc1ccc(OC(F)(F)F)cc1 [Compound 3l, 2-(3-Fluoro-4-nitrophenoxy)-N-(4-(trifluoromethoxy)phenyl)acetamide]
- melting point: 146 to 148 °C
- MIC [4]: 32 µg/mL (≈ 85.5 µM)

SMILES: O=C(COc1ccc([N+](=O)[O-])c(F)c1)Nc1ccccc1[N+](=O)[O-] [Compound 3m, 2-(3-Fluoro-4-nitrophenoxy)-N-(2-nitrophenyl)acetamide]
- IC50 ([1]; A549, 48 h): > 40 µM
- IC50 ([9]; one bound stated for all six cell lines, read-out: IC50 against the tested six different cell lines): > 40 µM
- inhibitory effects against six different tumor cell lines ([9]; result in words): no inhibitory effects
- safety profile / toxicity in six different cell lines ([9]; result in words): good safety profile
- IC50 ([2]; A-375, 48 h): > 40 µM
- melting point: 201 to 202 °C
- IC50 ([3]; Vero, 48 h): > 40 µM
- safety profile in a vero cell line ([3]; MTT assay, result in words): good safety profile
- MIC [4]: 4 µg/mL (≈ 11.9 µM)
- IC50 ([5]; HCT-116, 48 h): > 40 µM
- IC50 ([6]; HeLa, 48 h): > 40 µM
- IC50 ([7]; SK-OV-3, 48 h): > 40 µM
- IC50 ([8]; HepG2, 48 h): > 40 µM

SMILES: O=C(COc1ccc([N+](=O)[O-])c(F)c1)Nc1ccc(Br)cc1Cl [Compound 3n, N-(4-Bromo-2-chlorophenyl)-2-(3-fluoro-4-nitrophenoxy)acetamide]
- melting point: 173 to 175 °C
- MIC [4]: 32 µg/mL (≈ 79.3 µM)

SMILES: O=C(COc1ccc([N+](=O)[O-])c(F)c1)Nc1ccc(C(F)(F)F)cc1 [Compound 3o, 2-(3-Fluoro-4-nitrophenoxy)-N-(4-(trifluoromethyl)phenyl)acetamide]
- IC50 [1, 10]: > 40 µM
- IC50 [2, 11]: 28.3 ± 1.2 µM
- melting point: 173 to 175 °C
- IC50 [3, 12]: > 40 µM
- MIC [4]: 16 µg/mL (≈ 44.7 µM)
- IC50 [5, 13]: > 40 µM
- IC50 [6, 14]: 33.8 ± 1.7 µM
- IC50 [7, 15]: 28.6 ± 2.3 µM
- IC50 [8, 16]: > 40 µM

SMILES: Cc1ccc([N+](=O)[O-])cc1NC(=O)COc1ccc([N+](=O)[O-])c(F)c1 [Compound 3p, 2-(3-Fluoro-4-nitrophenoxy)-N-(2-methyl-5-nitrophenyl)acetamide]
- melting point: 211 to 213 °C
- MIC [4]: 64 µg/mL (≈ 183 µM)

SMILES: COC(=O)COc1ccc(NC(=O)COc2ccc(C)cc2C)cc1 [I, methyl 2-(4-(2-(2,4-dimethylphenoxy)acetamido)phenoxy)acetate]
- MIC [4]: 4 µg/mL (≈ 11.6 µM)

SMILES: NNC(=O)c1ccncc1 [Isoniazide]
- MIC [4]: 0.0625 µg/mL (≈ 0.456 µM)
